Results on 34 compounds are retold here after the C3SDB collision cross section collection.

The conditions of data set [1]: instrument: TW, calibrated with phosphatidylcholines (ESI+) and phosphatidylethanolamines (ESI-).
For data set [2] the following is noted: instrument: DT, single field, calibrated with Agilent tune mix (Agilent).
The conditions of data set [3]: [M+H]+; instrument: DT; stepped-field.
The conditions of data set [4]: instrument: TW, calibrated with phosphatidylcholines (ESI+) and phosphatidylethanolamines (ESI-), doubly charged cardiolipins calibrated with poly-DL-….
For data set [5] the following is noted: [M+Na]+; instrument: DT; stepped-field.
For data set [6] the following is noted: [M+H]+; instrument: DT; single field, calibrated with Agilent tune mix (Agilent).

Take `CCCCCCCCCCCCCCCCCC(=O)N[C@@H](CO)[C@H](O)CCCCCCCCCCCCCCC` [Cer(d18:0/18:0)]: the “collision cross section (N2)” value in data set [1] ([M+H]+) is recorded as 263.1 Å².
On the same count and under the same terms, as for `CCCCCCCCCCCCCCCCCCCC(=O)N[C@@H](CO)[C@H](O)CCCCCCCCCCCCCCC` [Cer(d18:0/20:0)], the figure is 269.1 Å².
As for `CCCCCCCCCCCCC=CC[C@@H](O)[C@H](CO)NC(=O)CC=CCCCCCCCCCCCCCCCCCC` [Cer(d18:1/22:1)], the “collision cross section (N2)” value in data set [1] ([M+H]+) amounted to 270.2 Å²; in data set [1] ([M-H]-), 260.2 Å².
On to `CCCCCCCCCCCCC=CC[C@@H](O)[C@H](CO)NC(=O)CC=CCCCCCCCCCCCCCCCCCCCCCC` [Cer(d18:1/26:1)], for which the “collision cross section (N2)” value in data set [1] ([M+H]+) is recorded as 282.4 Å².
Regarding `CCCCCCCCCCCCC=CC[C@@H](O)[C@H](CO[C@@H]1O[C@H](CO)[C@@H](O)C(O)C1O)NC(=O)CC=CCCCCCCCCCCCCCC` (stereo partly specified) [GlcCer(d18:1/18:1)], the “collision cross section (N2)” value in data set [1] ([M+H]+) is 281.8 Å².
Regarding `CCCCCCCCCCCCC=CC[C@@H](O)[C@H](CO[C@@H]1O[C@H](CO)[C@@H](O)C(O)C1O)NC(=O)CC=CCCCCCCCCCCCCCCCCCCCC` (stereo partly specified) [GlcCer(d18:1/24:1)], the “collision cross section (N2)” value in data set [1] ([M+H]+) came out at 298.2 Å²; in data set [1] ([M+Na]+), 297.3 Å².
`CCCCCCCCCCCCCCCC(=O)OCC(O)COP(=O)([O-])OCC[N+](C)(C)C` (stereo unspecified) [LPC(16:0)]: the “collision cross section (N2)” value in data set [2] ([M+HCOO]-) was 235 Å²; in data set [2] ([M+H]+) it was 229.8 Å²; in data set [1] ([M+H]+), 228.5 Å²; in data set [3], 233.3 Å².
Regarding `CCCCC/C=C\C/C=C\C/C=C\CCCCCCC(=O)OC[C@@H](O)COP(=O)([O-])OCC[N+](C)(C)C` [LPC(20:3)], the “collision cross section (N2)” value in data set [1] ([M+H]+) came to 239 Å².
Consider `CC/C=C\C/C=C\C/C=C\C/C=C\CCCCCCC(=O)OC[C@@H](O)COP(=O)([O-])OCC[N+](C)(C)C` [LPC(20:4)], for which the “collision cross section (N2)” value in data set [1] ([M+H]+) turned out to be 232.4 Å².
As to `CCCCC/C=C\C/C=C\CCCCCCCC(=O)O[C@H](COC(=O)CCCCCCCCCCCCCCCCC)COP(=O)(O)O` [PA(36:2)], the “collision cross section (N2)” value was found to be 274.5 Å² in data set [2] ([M+NH4]+), 274 Å² in data set [2] ([M+Na]+), 260.2 Å² in data set [2] ([M-H]-) and 259.5 Å² in data set [1] ([M-H]-).
For the compound `CCCCC/C=C\C/C=C\C/C=C\CCCCC(=O)OC[C@H](COP(=O)([O-])OCC[N+](C)(C)C)OC(=O)CCCCCCC/C=C\CCCCCCCC` [PC(36:4)], the “collision cross section (N2)” value in data set [2] ([M+HCOO]-) was found to be 288.4 Å²; in data set [1] ([M+CH3COO]-), 290.8 Å²; in data set [1] ([M+H]+), 286 Å².
For `CCCCC/C=C\C/C=C\CCCCCCCCCCCC(=O)O[C@H](COC(=O)CCCCCCC/C=C\C/C=C\CCCCC)COP(=O)([O-])OCC[N+](C)(C)C` [PC(40:4)], the results for the “collision cross section (N2)” value in data set [2] ([M+H]+) and in data set [1] ([M+H]+) were 300.2 Å² and 296.1 Å², respectively.
Regarding `CC/C=C\C/C=C\C/C=C\C/C=C\CCCCC(=O)OC[C@H](COP(=O)([O-])OCC[N+](C)(C)C)OC(=O)CCCCC/C=C\C/C=C\C/C=C\C/C=C\CCCCC` [PC(40:8)], in data set [1] ([M+H]+), the “collision cross section (N2)” value amounted to 291.6 Å².
Take `CCCCCC/C=C\CCCCCCCC(=O)OCC(COP(=O)(O)OCCN)OC(=O)CCCCCCCC1CC1CCCCCCCC` (stereo unspecified) [PE(35:2)]: the figures for the “collision cross section (N2)” value in data set [4] ([M+H]+) and in data set [4] ([M-H]-) were 275.82 Å² and 265.69 Å², respectively.
For `CCCCCCCC/C=C\CCCCCCCC(=O)OC(COC(=O)CCCCCCCCCCCCCCCCC)COP(=O)(O)OCCN` (stereo unspecified) [PE(36:1)], in that order: 280.06 Å² and 270.25 Å².
As to `CC/C=C\C/C=C\C/C=C\C/C=C\C/C=C\CCCC(=O)OC[C@H](COP(=O)(O)OCCN)OC(=O)CCCCC/C=C\C/C=C\C/C=C\C/C=C\CCCCC` [PE(42:9)], the “collision cross section (N2)” value in data set [5] was 295.6 Å²; in data set [1] ([M+H]+), 288.2 Å².
For the compound `CC/C=C\C/C=C\C/C=C\C/C=C\C/C=C\CCCCCC(=O)O[C@H](COC(=O)CCC/C=C\C/C=C\C/C=C\C/C=C\C/C=C\CC)COP(=O)(O)OCCN` [PE(42:10)], the figures for the “collision cross section (N2)” value in data set [5] and in data set [1] ([M+H]+) were 291 Å² and 285 Å², respectively.
Regarding `CCCC/C=C\CCCCCCCC(=O)O[C@H](CO/C=C\CCCCCCCCCCCCCCCCCC)COP(=O)(O)OCCN` [PE(p34:1)], the “collision cross section (N2)” value is on record as 273.2 Å² in data set [2] ([M+H]+), 276.9 Å² in data set [2] ([M+Na]+), 262.2 Å² in data set [2] ([M-H]-) and 262.1 Å² in data set [1] ([M-H]-).
In the case of `CCCCCC/C=C\CCCCCCCC(=O)O[C@H](CO/C=C\CCCCCCCCCCCCCCCCCC)COP(=O)(O)OCCN` [PE(p36:1)], the “collision cross section (N2)” value in data set [1] ([M+H]+) is 279.7 Å²; in data set [1] ([M-H]-), 267.3 Å².
On to `CCCCC/C=C\C/C=C\CCCCCCCCCC(=O)O[C@H](CO/C=C\CCCCCCCCCCCCCC)COP(=O)(O)OCCN` [PE(p36:2)], for which the “collision cross section (N2)” value in data set [2] ([M+H]+) was found to be 277.1 Å²; in data set [2] ([M-H]-), 267.6 Å²; in data set [1] ([M+H]+), 278.1 Å²; in data set [1] ([M-H]-), 266.5 Å².
As for `CC/C=C\C/C=C\C/C=C\C/C=C\C/C=C\CCCC(=O)O[C@H](CO/C=C\CCCCCCCCCCCCCC)COP(=O)(O)OCCN` [PE(p36:5)], the “collision cross section (N2)” value in data set [1] ([M+H]+) is recorded as 274.2 Å².
As for `CCCCC/C=C\C/C=C\C/C=C\CCCCCCC(=O)O[C@H](CO/C=C\CCCCCCCCCCCCCCCC)COP(=O)(O)OCCN` [PE(p38:3)], the “collision cross section (N2)” value in data set [1] ([M+H]+) is given as 281.4 Å²; in data set [1] ([M-H]-), 270.9 Å².
Consider `CCCCC/C=C\C/C=C\C/C=C\C/C=C\CCCCCC(=O)O[C@H](CO/C=C\CCCCCCCCCCCCCC)COP(=O)(O)OCCN` [PE(p38:4)], for which the results for the “collision cross section (N2)” value in data set [2] ([M+H]+), in data set [1] ([M+H]+) and in data set [1] ([M-H]-) were 281.5 Å², 280.6 Å² and 270.3 Å², respectively.
As for `CCCCCC/C=C\CCCCCCCC(=O)OCC(COP(=O)(O)OCC(O)CO)OC(=O)CCCCCCCCCCCCC` (stereo unspecified) [PG(30:1)], in data set [4] ([M+Na]+), the “collision cross section (N2)” value stood at 268.07 Å².
For the compound `CCCCCC/C=C\CCCCCCCC(=O)OCC(COP(=O)(O)OCC(O)CO)OC(=O)CCCCCCC/C=C\CCCCCC` (stereo unspecified) [PG(32:2)], the entries for the “collision cross section (N2)” value in data set [4] ([M+Na]+) and in data set [4] ([M-H]-) were 272.38 Å² and 261.31 Å², respectively.
For `CCCCCCCCCCCCCCCC(=O)OCC(COP(=O)(O)OCC(O)CO)OC(=O)CCCCCCCC1CC1CCCCCC` (stereo unspecified) [PG(33:1)], in that order: 280.56 Å² and 266.36 Å².
For the compound `CCCCCCCC/C=C\CCCCCCCC(=O)OC(COC(=O)CCCCCCCCCCCCCCC)COP(=O)(O)OCC(O)CO` (stereo unspecified) [PG(34:1)], the “collision cross section (N2)” value in data set [4] ([M+Na]+) was found to be 281.03 Å²; in data set [4] ([M-H]-) it was 270.03 Å².
Take `CCCCCCCC/C=C\CCCCCCCC(=O)OC(COC(=O)CCCCCCCCCCCCCCCCC)COP(=O)(O)OCC(O)CO` (stereo unspecified) [PG(36:1)]: the “collision cross section (N2)” value in data set [4] ([M-H]-) came out at 276.25 Å².
On to `CC/C=C\C/C=C\C/C=C\C/C=C\CCCCC(=O)O[C@H](COC(=O)CCCCCCCCCCC/C=C\C/C=C\CCCCC)COP(=O)(O)OC[C@@H](O)CO` [PG(40:6)], for which the “collision cross section (N2)” value in data set [2] ([M+NH4]+) is listed as 296.6 Å²; in data set [2] ([M+Na]+), 292.4 Å²; in data set [1] ([M+Na]+), 290 Å²; in data set [1] ([M-H]-), 281.9 Å².
For the compound `CCCCCCCCCC/C=C\CCCCCCCCCC(=O)O[C@H](COC(=O)CCCCCCCCCCCCC)COP(=O)(O)O[C@H]1C(O)C(O)C(O)[C@@H](O)C1O` (stereo partly specified) [PI(36:1)], the “collision cross section (N2)” value in data set [2] ([M+H]+) was found to be 301.6 Å²; in data set [2] ([M+NH4]+), 302.2 Å²; in data set [2] ([M+Na]+), 299 Å²; in data set [2] ([M-H]-), 290.5 Å²; in data set [1] ([M+Na]+) it was 297.2 Å²; in data set [1] ([M-H]-), 289.6 Å².
As to `CCCCC/C=C\C/C=C\C/C=C\C/C=C\CCCC(=O)O[C@H](COC(=O)CCCCCCC/C=C\CCCCCCCC)COP(=O)(O)O[C@H]1C(O)C(O)C(O)[C@@H](OP(=O)(O)O)C1O` (stereo partly specified) [PIP(38:5)], in data set [1] ([M+H-H2O]+), the “collision cross section (N2)” value is on record as 299.7 Å².
As for `CCCCCCCCCCCCC=CC[C@@H](O)[C@H](COP(=O)([O-])OCC[N+](C)(C)C)NC(=O)CCCCCCCCCCCCCCC` [SM(d18:1/16:0)], the “collision cross section (N2)” value in data set [1] ([M+H]+) was 281.1 Å².
For the compound `CCCCCCCCCCCCC=CC[C@@H](O)[C@H](COP(=O)([O-])OCC[N+](C)(C)C)NC(=O)CCCCCCCCCCCCCCCCC` [SM(d18:1/18:0)], the “collision cross section (N2)” value in data set [1] ([M+H]+) is recorded as 286.6 Å²; in data set [6], 290.2 Å².
Take `CCCCCCCCCCCCC=CC[C@@H](O)[C@H](COP(=O)([O-])OCC[N+](C)(C)C)NC(=O)CC=CCCCCCCCCCCCCCCCCCC` [SM(d18:1/22:1)]: the “collision cross section (N2)” value in data set [1] ([M+H]+) turned out to be 295 Å².
